Experiments:
Type in all cases: in vivo, mouse
[1] = ALT & AST levels, C57/BL6 mice (Example 4, Table 32); settings: for ALT Pre-Bleed / AST Pre-Bleed: pre-treatment bleed; for ALT Post-Bleed / AST Post-Bleed: 48 hours following injection
Procedure: (§1) Eight-week old male C57/BL6 mice (Jackson Laboratory, Bar Harbor, Me.) were administered a single dose of GCGR oligonucleotide by intraperitoneal injection at a concentration of […]. Each dose group consisted of four animals. Shown in Table 31 are the sequences, motifs and conjugates of the GCGR antisense compounds used in this study. Bolded residues indicate 2′-O-methoxyethyl (2′-MOE) moieties. All compounds comprise phosphorothioate internucleoside linkages throughout and each cytosine is replaced with 5-methylcytosine. ISIS 386626, ISIS 386627 and ISIS 386628 further comprise a C16 conjugate group attached to the 2′-O position of the sugar via a diamide linkage (2′-OCH2C(═O)N(H)(CH2)4N(H)C(═O)—(CH2)15CH3). GCGR antisense compounds target published GCGR sequences, including Genbank® Accession No. BC031885.1 (SEQ ID NO: 7).
(§2) Mice were sacrificed 48 hours following injection to determine serum transaminase levels (Table 32); liver, white adipose tissue (WAT), spleen and kidney weight (Table 33); cholesterol, triglyceride and glucose levels (Table 34); GCGR mRNA levels (Tables 35-41); and full-length and total oligonucleotide concentration in liver and kidney (Table 42). Endpoints were assessed using methods described herein and well known to those of ordinary skill in the art. Data is included from a pre-treatment bleed (Pre-Bleed) and post-treatment bleed (Post-Bleed).

[2] = Total and full-length antisense compound concentrations in liver and kidney (Example 4, Table 42); settings: C57/BL6 mice; single i.p. dose; 48 h; dose not given
Procedure: as §1, §2
Treatment with the 2-10-2 MOE gapmers led to a significant dose-dependent decrease in GCGR mRNA expression. […] To determine whether the observed increase in efficiency with the short antisense compounds is due to an increase in antisense compound accumulation, full-length and total antisense compound concentration in the liver and kidney were determined.

[3] = Triglyceride, cholesterol and glucose levels, pre-bleed and post-bleed (Example 4, Table 34); set-up: TRIG Pre-Bleed / TRIG Post-Bleed / CHOL Pre-Bleed / CHOL Post-Bleed / Glucose Pre-Bleed / Glucose Post-Bleed: unit not given here; settings: C57/BL6 mice; for CHOL Pre-Bleed / Glucose Pre-Bleed / TRIG Pre-Bleed: pre-treatment bleed; for CHOL Post-Bleed / Glucose Post-Bleed / TRIG Post-Bleed: post-treatment bleed, 48 h
Procedure: as §1, §2

[4] = Organ weights: liver, white adipose tissue, spleen, kidney (Example 4, Table 33); settings: 48 h, C57/BL6 mice
Procedure: as §1, §2

GCGR mRNA = GCGR mRNA levels in liver of C57/BL6 mice, single i.p. dose (Example 4, Tables 35-41); settings: 48 h
Procedure: as §1, §2
To determine whether the phenotypic changes shown above correlated with a decrease in GCGR mRNA, treated animals were evaluated for levels of target mRNA in liver by real time PCR according to methods described herein. Tables 35 to 41 show results from direct comparisons of the antisense compounds targeting GCGR nucleic acid for their effect on target expression. Results are expressed as percent of saline control.

## 386628 (antisense TGTCTTGCTGCTTT; chemistry not fully specified) [compound 386628]
[1]; 6.25 mg/kg dose group
  ALT Pre-Bleed: 22 IU/L
  AST Pre-Bleed: 40 IU/L
[1]; 12.5 mg/kg dose group
  ALT Pre-Bleed: 28 IU/L
  AST Pre-Bleed: 42 IU/L
[1]; 25 mg/kg dose group
  ALT Pre-Bleed: 24 IU/L
  AST Pre-Bleed: 40 IU/L
[1]; 50 mg/kg dose group
  ALT Pre-Bleed: 28 IU/L
  AST Pre-Bleed: 44 IU/L
[1]; single i.p. dose 6.25 mg/kg
  ALT Post-Bleed: 29 IU/L
  AST Post-Bleed: 59 IU/L
[1]; single i.p. dose 12.5 mg/kg
  ALT Post-Bleed: 35 IU/L
  AST Post-Bleed: 75 IU/L
[1]; single i.p. dose 25 mg/kg
  ALT Post-Bleed: 32 IU/L
  AST Post-Bleed: 57 IU/L
[1]; single i.p. dose 50 mg/kg
  ALT Post-Bleed: 68 IU/L
  AST Post-Bleed: 76 IU/L
[2]
  Full-length antisense compound concentration, Kidney: 305 µg/g
  Full-length antisense compound concentration, Liver: 202 µg/g
  Total antisense compound concentration, Kidney: 496 µg/g
  Total antisense compound concentration, Liver: 286 µg/g
[3]; 6.25 mg/kg group
  CHOL Pre-Bleed: 83
  Glucose Pre-Bleed: 228
  TRIG Pre-Bleed: 117
[3]; 6.25 mg/kg single i.p.
  CHOL Post-Bleed: 85
  Glucose Post-Bleed: 229
  TRIG Post-Bleed: 121
[3]; 12.5 mg/kg group
  CHOL Pre-Bleed: 90
  Glucose Pre-Bleed: 231
  TRIG Pre-Bleed: 90
[3]; 12.5 mg/kg single i.p.
  CHOL Post-Bleed: 94
  Glucose Post-Bleed: 240
  TRIG Post-Bleed: 123
[3]; 25 mg/kg group
  CHOL Pre-Bleed: 84
  Glucose Pre-Bleed: 210
  TRIG Pre-Bleed: 102
[3]; 25 mg/kg single i.p.
  CHOL Post-Bleed: 85
  Glucose Post-Bleed: 223
  TRIG Post-Bleed: 129
[3]; 50 mg/kg group
  CHOL Pre-Bleed: 88
  Glucose Pre-Bleed: 209
  TRIG Pre-Bleed: 102
[3]; 50 mg/kg single i.p.
  CHOL Post-Bleed: 95
  Glucose Post-Bleed: 232
  TRIG Post-Bleed: 98
[4]; 6.25 mg/kg single i.p.
  Organ weight: Kidney: 102 % saline control
  Organ weight: Liver: 98 % saline control
  Organ weight: Spleen: 151 % saline control
  Organ weight: WAT: 106 % saline control
[4]; 12.5 mg/kg single i.p.
  Organ weight: Kidney: 99 % saline control
  Organ weight: Liver: 101 % saline control
  Organ weight: Spleen: 114 % saline control
  Organ weight: WAT: 111 % saline control
[4]; 25 mg/kg single i.p.
  Organ weight: Kidney: 109 % saline control
  Organ weight: Liver: 102 % saline control
  Organ weight: Spleen: 113 % saline control
  Organ weight: WAT: 97 % saline control
[4]; 50 mg/kg single i.p.
  Organ weight: Kidney: 99 % saline control
  Organ weight: Liver: 104 % saline control
  Organ weight: Spleen: 126 % saline control
  Organ weight: WAT: 100 % saline control
GCGR mRNA; 6.25 mg/kg single i.p., Table 38 comparison ISIS 148364 & ISIS 386628
  GCGR mRNA levels in liver: 77% of saline control
GCGR mRNA; 6.25 mg/kg single i.p., Table 41 comparison ISIS 386628 & ISIS 386594
  GCGR mRNA levels in liver: 97% of saline control
GCGR mRNA; 12.5 mg/kg single i.p., Table 38 comparison ISIS 148364 & ISIS 386628
  GCGR mRNA levels in liver: 53% of saline control
GCGR mRNA; 12.5 mg/kg single i.p., Table 41 comparison ISIS 386628 & ISIS 386594
  GCGR mRNA levels in liver: 38% of saline control
GCGR mRNA; 25 mg/kg single i.p., Table 38 comparison ISIS 148364 & ISIS 386628
  GCGR mRNA levels in liver: 18% of saline control
GCGR mRNA; 25 mg/kg single i.p., Table 41 comparison ISIS 386628 & ISIS 386594
  GCGR mRNA levels in liver: 13% of saline control
GCGR mRNA; 50 mg/kg single i.p., Table 38 comparison ISIS 148364 & ISIS 386628
  GCGR mRNA levels in liver: 2% of saline control
GCGR mRNA; 50 mg/kg single i.p., Table 41 comparison ISIS 386628 & ISIS 386594
  GCGR mRNA levels in liver: 4% of saline control

## 386626 (antisense GCTTCTCCATCATA; chemistry not fully specified) [compound 386626]
[1]; 6.25 mg/kg dose group
  ALT Pre-Bleed: 26 IU/L
  AST Pre-Bleed: 46 IU/L
[1]; 12.5 mg/kg dose group
  ALT Pre-Bleed: 28 IU/L
  AST Pre-Bleed: 44 IU/L
[1]; 25 mg/kg dose group
  ALT Pre-Bleed: 30 IU/L
  AST Pre-Bleed: 44 IU/L
[1]; 50 mg/kg dose group
  ALT Pre-Bleed: 28 IU/L
  AST Pre-Bleed: 48 IU/L
[1]; single i.p. dose 6.25 mg/kg
  ALT Post-Bleed: 42 IU/L
  AST Post-Bleed: 69 IU/L
[1]; single i.p. dose 12.5 mg/kg
  ALT Post-Bleed: 34 IU/L
  AST Post-Bleed: 90 IU/L
[1]; single i.p. dose 25 mg/kg
  ALT Post-Bleed: 36 IU/L
  AST Post-Bleed: 92 IU/L
[1]; single i.p. dose 50 mg/kg
  ALT Post-Bleed: 40 IU/L
  AST Post-Bleed: 120 IU/L
[2]
  Full-length antisense compound concentration, Kidney: 355 µg/g
  Full-length antisense compound concentration, Liver: 125 µg/g
  Total antisense compound concentration, Kidney: 757 µg/g
  Total antisense compound concentration, Liver: 274 µg/g
[3]; 6.25 mg/kg group
  CHOL Pre-Bleed: 85
  Glucose Pre-Bleed: 222
  TRIG Pre-Bleed: 86
[3]; 6.25 mg/kg single i.p.
  CHOL Post-Bleed: 90
  Glucose Post-Bleed: 221
  TRIG Post-Bleed: 162
[3]; 12.5 mg/kg group
  CHOL Pre-Bleed: 82
  Glucose Pre-Bleed: 232
  TRIG Pre-Bleed: 100
[3]; 12.5 mg/kg single i.p.
  CHOL Post-Bleed: 76
  Glucose Post-Bleed: 185
  TRIG Post-Bleed: 148
[3]; 25 mg/kg group
  CHOL Pre-Bleed: 87
  Glucose Pre-Bleed: 235
  TRIG Pre-Bleed: 100
[3]; 25 mg/kg single i.p.
  CHOL Post-Bleed: 72
  Glucose Post-Bleed: 186
  TRIG Post-Bleed: 187
[3]; 50 mg/kg group
  CHOL Pre-Bleed: 79
  Glucose Pre-Bleed: 239
  TRIG Pre-Bleed: 87
[3]; 50 mg/kg single i.p.
  CHOL Post-Bleed: 57
  Glucose Post-Bleed: 179
  TRIG Post-Bleed: 163
[4]; 6.25 mg/kg single i.p.
  Organ weight: Kidney: 100 % saline control
  Organ weight: Liver: 100 % saline control
  Organ weight: Spleen: 95 % saline control
  Organ weight: WAT: 90 % saline control
[4]; 12.5 mg/kg single i.p.
  Organ weight: Kidney: 97 % saline control
  Organ weight: Liver: 96 % saline control
  Organ weight: Spleen: 114 % saline control
  Organ weight: WAT: 73 % saline control
[4]; 25 mg/kg single i.p.
  Organ weight: Kidney: 103 % saline control
  Organ weight: Liver: 109 % saline control
  Organ weight: Spleen: 120 % saline control
  Organ weight: WAT: 97 % saline control
[4]; 50 mg/kg single i.p.
  Organ weight: Kidney: 104 % saline control
  Organ weight: Liver: 112 % saline control
  Organ weight: Spleen: 130 % saline control
  Organ weight: WAT: 77 % saline control
GCGR mRNA; 6.25 mg/kg single i.p., Table 35 comparison ISIS 148364 & ISIS 386626
  GCGR mRNA levels in liver: 7% of saline control
GCGR mRNA; 12.5 mg/kg single i.p., Table 35 comparison ISIS 148364 & ISIS 386626
  GCGR mRNA levels in liver: 3% of saline control
GCGR mRNA; 25 mg/kg single i.p., Table 35 comparison ISIS 148364 & ISIS 386626
  GCGR mRNA levels in liver: 8% of saline control
GCGR mRNA; 50 mg/kg single i.p., Table 35 comparison ISIS 148364 & ISIS 386626
  GCGR mRNA levels in liver: 0% of saline control

— US8188059B2, “Compounds and methods for modulating expression of GCGR” (Isis Pharmaceuticals, Inc., priority 2006, dated 2012)
